The values that follow come from PubChem BioAssay AID1338 (Columbia University Molecular Screening Center, 2008).

The test has as its target Tyrosine-protein phosphatase non-receptor type 22 (Homo sapiens) (UniProt Q9Y2R2). Description: LYP phosphatase inhibitors with catalase present, biochemical, catalase added, Infinite200, 384-well (AID 1338). The conditions noted are these: Recombinant LYP, DiFMUP fluorescence, at 10 µM, stronger effect = higher value.

Each structure is given as a SMILES string. Active and inactive are the calls of the source.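 Rule for the calls: active = normalized inhibition above 25%; inactive = normalized inhibition below 25%.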

Chain of Tyrosine-protein phosphatase non-receptor type 22 (Homo sapiens) (Q9Y2R2 whole entry, looked up): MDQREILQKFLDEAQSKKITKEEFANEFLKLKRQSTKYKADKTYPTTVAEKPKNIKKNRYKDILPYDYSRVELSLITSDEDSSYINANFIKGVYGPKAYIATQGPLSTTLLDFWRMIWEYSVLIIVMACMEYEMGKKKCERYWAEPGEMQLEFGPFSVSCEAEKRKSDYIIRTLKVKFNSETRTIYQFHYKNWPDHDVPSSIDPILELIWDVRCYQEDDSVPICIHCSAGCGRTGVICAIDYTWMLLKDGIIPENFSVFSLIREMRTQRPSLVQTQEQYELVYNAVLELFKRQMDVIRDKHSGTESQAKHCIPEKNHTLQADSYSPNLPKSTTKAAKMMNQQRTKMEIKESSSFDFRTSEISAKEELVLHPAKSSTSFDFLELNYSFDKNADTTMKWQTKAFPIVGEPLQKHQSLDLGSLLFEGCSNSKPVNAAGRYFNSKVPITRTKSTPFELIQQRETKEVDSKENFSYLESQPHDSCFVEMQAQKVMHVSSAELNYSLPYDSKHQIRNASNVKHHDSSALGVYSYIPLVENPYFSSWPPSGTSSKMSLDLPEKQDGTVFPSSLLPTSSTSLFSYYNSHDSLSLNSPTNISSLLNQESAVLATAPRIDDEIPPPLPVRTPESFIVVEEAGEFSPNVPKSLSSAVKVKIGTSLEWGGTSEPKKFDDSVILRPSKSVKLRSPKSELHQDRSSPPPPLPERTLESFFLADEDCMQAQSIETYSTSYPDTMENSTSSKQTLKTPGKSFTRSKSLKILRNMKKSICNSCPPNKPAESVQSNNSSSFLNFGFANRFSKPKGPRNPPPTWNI

Consider `CC(C(=O)O)N1C(=O)/C(=C/C=C/c2ccco2)SC1=S` (stereo unspecified), for which the inhibition is 2.7% (inactive).

For `Nc1c(C(=O)Nc2nc3ccccc3s2)sc2nc(-c3cccs3)ccc12`, the inhibition was 32.2%. In the case of `O=[N+]([O-])c1cc(/C=N\Nc2nccs2)ccc1O` it was 4% (inactive); in that of `Cn1nc(-c2ccc(Cl)cc2)nc2c(=O)n(C)c(=O)nc1-2`, 34.1%; in that of `COc1cc(-c2nnc(SCc3cc(=O)oc4cc(O)c(O)cc34)o2)cc(OC)c1OC`, 49%. In the case of `O=C(O)CCCN1C(=O)/C(=C/c2ccc(-c3nc4ccccc4s3)o2)SC1=S` it was 36.5%; in that of `CC(C)C(C(=O)O)N1C(=O)/C(=C/C=C/c2ccco2)SC1=S` (stereo unspecified), 13% (inactive). The figure for `COc1cccc(OC)c1-c1nn2c(-c3cc(-c4ccccc4)n[nH]3)nnc2s1` is 54.4%; for `O=C(c1cccs1)c1no[n+]([O-])c1C(=O)c1cccs1` it is 51.5%; for `O=C(O)CCN1C(=O)/C(=C/c2ccc(-c3nc4ccccc4s3)o2)SC1=S` it is 48.9%. As for `Cc1ccc(NC(=O)CN2C(=O)S/C(=C\c3cccn3-c3cccc(C(=O)O)c3)C2=O)c(C)c1`, the inhibition is 48.2%.

As usually defined, the inhibition is the change of the read-out against control, counted positive when it falls.
